Data as given in publication PMC6576746, “Rational discovery of dual-indication multi-target PDE/Kinase inhibitor for precision anti-cancer therapy using structural systems pharmacology” (PLoS Computational Biology, 2019).

Columns and labels:
Test in all cases: cells
Set-up in all cases: species or system panel of human cancer cell lines; Eurofins OncoPanel proliferation; nuclei count by high-content fluorescence imaging, 10-point dose response
BPH1 = conditions: Homo sapiens, BPH-1, 72 h, cell count, 3 days
Method: (§1) OncoPanel cancer cell proliferation assay was performed by Eurofins Panlabs, Inc. (Missouri, USA). Cancer cells were grown in RPMI 1640, 10% FBS, 2 mM L-alanyl-L-glutamine, 1 mM Na pyruvate, or a special medium. Cells were seeded into 384-well plates and incubated in a humidified atmosphere of 5% CO2 at 37°C. Compounds were added the day following cell seeding. At the same time, a time zero untreated cell plate was generated. After a 3-day incubation period, cells were fixed and stained to allow fluorescence imaging of nuclei. Levosimendan was serially diluted in half-log steps from 100 μM and assayed over 10 concentrations with a maximum assay concentration of 0.1% DMSO. Automated fluorescence microscopy was carried out using a Molecular Devices ImageXpress Micro XL high-content imager, and images were collected with a 4X objective. 16-bit TIFF images were acquired and analyzed with MetaXpress 5.1.0.41 software. Cell count EC50 is the test concentration at the curve inflection point (parameter C), or half the effective response. IC50 is the test compound concentration at 50% of the maximum possible response. GI50 is the concentration needed to reduce the observed growth by half (midway between the relative cell count at the curve maximum and at the time of compound addition). Activity area is an estimate of the integrated area above the response curve. Activity area values range from 0–10, where a value of zero indicates no inhibition of proliferation at all concentrations, and a value of 10 indicates complete inhibition of proliferation at all concentrations.

SNU-1 = conditions: Homo sapiens, SNU1, 72 h, cell count, 3 days
Method: as §1

H9 = conditions: Homo sapiens, H9, 72 h, cell count, 3 days
Method: as §1

SK-UT-1 = conditions: Homo sapiens, SK-UT-1, 72 h, cell count, 3 days
Method: as §1

T98G = conditions: Homo sapiens, T98G, 72 h, cell count, 3 days
Method: as §1

TE 125.T = conditions: 72 h, cell count, 3 days
Method: as §1

SK-LMS-1 = conditions: Homo sapiens, SK-LMS-1, 72 h, cell count, 3 days
Method: as §1

HeLa = conditions: Homo sapiens, HeLa, 72 h, cell count, 3 days
Method: as §1

Hs 229.T = conditions: 72 h, cell count, 3 days
Method: as §1

EB2 = conditions: Homo sapiens, EB2, 72 h, cell count, 3 days
Method: as §1

SUP-T1 = conditions: Homo sapiens, SUP-T1, 72 h, cell count, 3 days
Method: as §1

RS4;11 = conditions: Homo sapiens, RS4-11, 72 h, cell count, 3 days
Method: as §1

REC-1 = conditions: Homo sapiens, Rec1, 72 h, cell count, 3 days
Method: as §1

HCT-116 = conditions: Homo sapiens, HCT-116, 72 h, cell count, 3 days
Method: as §1

[1] = 50% of maximum possible response

`C[C@@H]1CC(=O)NN=C1c1ccc(NN=C(C#N)C#N)cc1` [levosimendan] showed an IC50 (BPH1; [1]) of 8.33 µM, a GI50 (BPH1; corrected for time zero) of 7.33 µM and an EC50 (BPH1; curve inflection point) of 7.05 µM. The IC50 (SNU-1; [1]) was 6.31 µM, the GI50 (SNU-1; corrected for time zero) was 5.53 µM and the EC50 (SNU-1; curve inflection point) was 5.52 µM. The IC50 (H9; [1]) was 5.4 µM, the GI50 (H9; corrected for time zero) was 4.31 µM and the EC50 (H9; curve inflection point) was 4.92 µM. It also gave an IC50 (SK-UT-1; [1]) of 11.8 µM, a GI50 (SK-UT-1; corrected for time zero) of 9.1 µM and an EC50 (SK-UT-1; curve inflection point) of 11.8 µM. The IC50 (T98G; [1]) was > 100 µM, the GI50 (T98G; corrected for time zero) was > 100 µM and the EC50 (T98G; curve inflection point) was > 100 µM. The IC50 (TE 125.T; [1]) was > 100 µM, the GI50 (TE 125.T; corrected for time zero) was 71.4 µM and the EC50 (TE 125.T; curve inflection point) was > 100 µM. For the same compound, the IC50 (SK-LMS-1; [1]) was 27.1 µM, the GI50 (SK-LMS-1; corrected for time zero) was 21.5 µM and the EC50 (SK-LMS-1; curve inflection point) was 27.1 µM. It also gave an IC50 (HeLa; [1]) of 91.2 µM, a GI50 (HeLa; corrected for time zero) of 75 µM and an EC50 (HeLa; curve inflection point) of 91.2 µM. The IC50 (Hs 229.T; [1]) was 100 µM, the GI50 (Hs 229.T; corrected for time zero) was 60.3 µM and the EC50 (Hs 229.T; curve inflection point) was 100 µM. It also gave an IC50 (EB2; [1]) of 34.4 µM, a GI50 (EB2; corrected for time zero) of 24.5 µM and an EC50 (EB2; curve inflection point) of 34.4 µM. For the same compound, the IC50 (SUP-T1; [1]) was 15.6 µM, the GI50 (SUP-T1; corrected for time zero) was 11 µM and the EC50 (SUP-T1; curve inflection point) was 15.6 µM. For the same compound, the IC50 (RS4;11; [1]) was 29.7 µM, the GI50 (RS4;11; corrected for time zero) was 19.6 µM and the EC50 (RS4;11; curve inflection point) was 25.4 µM. For the same compound, the IC50 (REC-1; [1]) was 25.2 µM, the GI50 (REC-1; corrected for time zero) was 9.04 µM and the EC50 (REC-1; curve inflection point) was 25.2 µM. It also gave an IC50 (HCT-116; [1]) of 8.39 µM, a GI50 (HCT-116; corrected for time zero) of 8.1 µM and an EC50 (HCT-116; curve inflection point) of 8.01 µM.
